Measurements reported in patent publication US9139795B2, “Biodegradable lubricant composition” (IDEMITSU KOSAN CO., LTD., priority 2009, dated 2015).

Tests used:
Acid value (JIS K 2501) = assay type: physicochemical; conditions: base oil ester
[1] = Kinematic viscosity (JIS K 2283); assay type: physicochemical; conditions: base oil ester
[2] = Saponification value (JIS K 2503); assay type: physicochemical; conditions: base oil ester
[3] = Biodegradability, modified MITI test method (OECD301C); conditions: base oil ester alone
Experimental: A biodegradation rate was measured according to the modified MITI test method (OECD301C).

| Substance | Acid Value (Acid value (JIS K 2501)) [mgKOH/g] | Viscosity @ 40° C. [1] [mm^2/s] | Saponification Value [2] [mgKOH/g] | Biodegradability [3] [%] |
| --- | --- | --- | --- | --- |
| di(pentaerythritol)oleate [Ester E] | 3.30 | 556.8 | 172 | – |
| trimethylolpropane diisostearate [Ester G] | 0.06 | 105.0 | 176 | 65.0 |
